Values joined by “and” are separate entries in the source; they are usually repeats but may differ in a detail not shown here. Equal values may be shown once. Read-outs that look alike come from different tables or passages of the source.
Experiments:
HSV-1 = HSV-1 replication in infected Vero cells (plaque assay); assay type: cell-based, Herpes Simplex Virus-Type 1; conditions: for IC50: Human alphaherpesvirus 1, Vero, read-out: IC50, concentration at which 50% of HSV-1 replication was inhibited
Method: For this purpose HSV-1 replication at 24, 48 and 72 h was examined in the presence or absence of varying concentrations of the polyphenol.
The SI is the ratio of the CD50 divided by a selected inhibitory concentration (IC %).
Viral inhibition by Tolan-3 appeared to occur after viral entry into cells. […] Subsequently, the compound was removed and replaced with culture medium alone, and the incubated continued for 48 or 72 more hrs. In a second experiment, HSV-1 infected Vero cells were incubated with 350 μM Tolan-3 for 48 h. Thereafter, the Tolan-3 was removed and replaced by medium and the incubation continued for an additional 24 h. Viral titers were calculated by a standard plaque assay.

[1] = system: normal human fibroblasts (MHRF); assay: MTT cytotoxicity, normal human fibroblasts; assay type: cell-based; conditions: for CD50 against MHRF: MTT
Method: (§1) As a first step, the antitumor activity of the tolans was assessed against a panel of three cancer cells lines that produce solid tumors upon implantation into animals. DU145 is an androgen-independent prostate cancer cells. T24 is a transitional cell bladder carcinoma cell. MDAH2274 (“MDAH) is an endometroid ovarian adenocarcinoma cell. To assess the selectivity of this antitumor activity, the toxicity of the tolans to normal human fibroblasts (MHRF) was examined. Subsequently, studies with Tolan-3 (KST-201) were expanded to test its action on a wide range of tumor cell lines.
(§2) Cell killing was evaluated using the colorimetric MTT assay. The assay measures the formation of a colored product from a chromogenic precursor, the tetrazole 3-[4,5-dimethylthiazol-2-yl]-2,5 diphenyltetrazolium bromide (MTT). The yellow MTT is reduced to purple formazan in the mitochondria of living cells. A solubilization solution (typically dimethyl sulfoxide or sodium dodecyl sulfate in dilute hydrochloric acid) is added to dissolve the insoluble purple formazan product into a colored solution. The absorbance of this colored solution is quantified by measuring at a certain wavelength (usually between 500 and 600 nm) by a spectrophotometer. The amount of purple formazan product generated is proportional to the number of viable cells (Mosmann, T., 1983, J. Immunol. Meth. 65:55-63; Wilson, A. P., Cytotoxicity and Viability Assays. In: Animal Cell Culture: A Practical Approach, 3rd ed. (Masters, J R W, ed.) Oxford University Press: Oxford, Vol. 1, pp. 175-219. 2000). This MTT assay is used widely to assess the cytotoxicity and selectivity of compounds such as anti-cancer drugs. The assay is suitable for rapid toxicity characterization of a test agent such as a drug formulation. […] A lower CD50 indicates a greater cytotoxic activity (as a lower amount of the agent is needed to achieve a fixed level of cytotoxicity). Two agents can be compared by examining the fold-increase or decrease in their CD50 values.

DU145 = assay: MTT cytotoxicity, DU145 prostate cancer cells; assay type: cell-based, human; conditions: for IC50: MTT, read-out: CD50 against DU145
Method: as §1, §2

MDAH2274 = assay: MTT cytotoxicity, MDAH2274 ovarian cancer cells; assay type: cell-based, human
Method: As a first step, the antitumor activity of the tolans was assessed against a panel of three cancer cells lines that produce solid tumors upon implantation into animals. DU145 is an androgen-independent prostate cancer cells. T24 is a transitional cell bladder carcinoma cell. MDAH2274 (“MDAH) is an endometroid ovarian adenocarcinoma cell. To assess the selectivity of this antitumor activity, the toxicity of the tolans to normal human fibroblasts (MHRF) was examined.
as §2, with “The amount of purple formazan product generated is proportional to the number of viable cells (Mosmann, T., 1983, J. Immunol. Meth. 65:55-63; Wilson, A. P., Cytotoxicity and Viability Assays. In: Animal Cell Culture: A Practical Approach, 3rd ed. (Masters, J R W, ed.) Oxford University Press: Oxford, Vol. 1, pp. 175-219. 2000).” left out

HT29 = assay: MTT cytotoxicity, HT29 colon; assay type: cell-based; conditions: Homo sapiens, HT-29, 72 h; 3 Days; read-out: CD50 (μM) HT29
Method: as §2, with “Two agents can be compared by examining the fold-increase or decrease in their CD50 values.” left out

WiDR = assay: MTT cytotoxicity, WiDR colon; assay type: cell-based; conditions: Homo sapiens, 72 h, 3 Days, read-out: CD50 (μM) WiDR
Method: as §2, with “Two agents can be compared by examining the fold-increase or decrease in their CD50 values.” left out

NCIH460 = assay: MTT cytotoxicity, NCIH460 lung; assay type: cell-based; conditions: Homo sapiens, NCI-H460, 72 h; 3 Days; read-out: CD50 (μM) NCIH460
Method: as §2, with “Two agents can be compared by examining the fold-increase or decrease in their CD50 values.” left out

SKMEL28 = assay: MTT cytotoxicity, SKMEL28 melanoma; assay type: cell-based; conditions: Homo sapiens, SK-MEL-28, 72 h; 3 Days; read-out: CD50 (μM) SKMEL28
Method: as §2, with “Two agents can be compared by examining the fold-increase or decrease in their CD50 values.” left out

Mushroom tyrosinase = assay: Inhibition of mushroom tyrosinase activity; assay type: biochemical; conditions: concentration not given
Method: All chemical used for reagents were purchased from Sigma Chemical Company. KST201 at each tested concentration (1000, 250 and 100 μM) was dissolved in 10% ethanol from a master mixture of the drug prepared at 0.1M in 100% ethanol.
Mushroom tyrosinase (Sigma) was diluted in 50 mM phosphate buffer, pH 6.5 to yield a concentration of 16 U/μl. […] A master mix containing 0.5 mM L-DOPA [3,4-dihydroxy-1-phenylalanine], 10 mM Sodium L-tyrosine in 50 mM phosphate buffer, pH 6.5 was prepared. The KST-201 dilutions were preincubated with the enzyme for 20 minutes. The samples were pipetted into 24 well plates and the master mixture added quickly. The reaction was read using a kinetic format in which wells were read every 30 seconds over a course of 10 minutes at a wavelength of 475 nm using a Synergy HT Plate reader. A kinetic curve was generated for each sample compared to a total reaction with mushroom tyrosinase without a drug (total).

[2] = Homo sapiens, DU-145, 24 h, 1 day incubation
[3] = Homo sapiens, DU-145, 48 h, 2 days incubation
[4] = Homo sapiens, DU-145, 72 h, 3 days incubation
[5] = Homo sapiens, 24 h, MTT, 1 day incubation, read-out: CD50 against MDAH, compound tested individually
[6] = Homo sapiens, 48 h, MTT, 2 days incubation, read-out: CD50 against MDAH, compound tested individually
[7] = Homo sapiens, 72 h, MTT, 3 days incubation, read-out: CD50 against MDAH, compound tested individually
[8] = MTT, 1 day incubation, read-out: CD50 against MDAH, compound tested individually

SMILES | IC50 (HSV-1) | CD50 against MHRF ([1]; 2 days incubation) | CD50 against MHRF ([1]; 3 days incubation) | IC50 (DU145; [2]) | IC50 (DU145; [3]) | IC50 (DU145; [4]) | IC50 (DU145; 1 day incubation) | IC50 (MDAH2274; [5]) | IC50 (MDAH2274; [6]) | IC50 (MDAH2274; [7]) | IC50 (MDAH2274; [8]) | IC50 (HT29) | IC50 (WiDR) | IC50 (NCIH460) | IC50 (SKMEL28) | % inhibition of mushroom tyrosinase activity (Mushroom tyrosinase) | other results
Oc1ccc(C#Cc2ccc(O)cc2)cc1 [KST-201, 4,4′-dihydroxytolan] | 15.6 µM | 194.1 ± 9.60 µM | 153 µM and 153.2 ± 4.40 µM and 153 ± 4.4 µM | 57 µM | 16.8 ± 0.63 µM | 9.4 µM | 57.3 ± 0.81 µM | 22 µM | 10.5 ± 2.7 µM | 3.1 µM | 21.5 ± 7.35 µM | 79 ± 0.8 µM | 80 ± 0.9 µM | 42 ± 2 µM | 82 ± 10 µM | 59.2±13% | SI50 (selectivity index, CD50 divided by IC50) (HSV-1; 48 h post-infection): 6.8; Effect on HSV-1 viral replication in Vero cells (in words) (HSV-1; at CD50, 75% and 50% of CD50, 24, 48, 72 h): significant anti-HSV activity; Fold less toxic to normal fibroblasts than resveratrol ([1]; Table 15 vs Table 14): 3.5 fold; Fold more potent against DU145 cells compared to control MHRF fibroblasts (DU145): 16 fold; Fold more toxic to DU145 prostate cancer cells than resveratrol (DU145; Table 15 vs Table 14): 3 fold; Fold more potent in killing MDAH2274 cells vs. control MHRF fibroblasts (MDAH2274): 50 fold; IC50 (MDAH2274; Homo sapiens, 24 h, VC:KST-201 400:1, 1 day, read-out: CD50 (μM) of each Compound tested in combination, MDAH 2274): 1.16 µM; IC50 (MDAH2274; Homo sapiens, 48 h, VC:KST-201 400:1, 2 days, read-out: CD50 (μM) of each Compound tested in combination, MDAH 2274): 0.97 ± 0.02 µM; IC50 (MDAH2274; Homo sapiens, 72 h, VC:KST-201 400:1, 3 days, read-out: CD50 (μM) of each Compound tested in combination, MDAH 2274): 0.98 µM; IC50 (MDAH2274; MTT, 1 day incubation, listed as Hydroxytolan, read-out: CD50 against MDAH, compound tested individually): 21.5 ± 7.4 µM; IC50 (MDAH2274; MTT, 1 day incubation, listed as hydroxytolan, read-out: CD50 against MDAH, compound tested individually): 21.5 µM; Fold more toxic to MDAH 2274 ovarian cancer cells than resveratrol (MDAH2274; Table 15 vs Table 14): 4.7 fold; Increase of cytotoxic potency in the combination, MDAH 2274 (MDAH2274; VC:KST-201 400:1, 1 day): about 20 fold
Oc1ccc(/C=C/c2cc(O)cc(O)c2)cc1 [Resveratrol, 3,5,4′-trihydroxy-trans-stilbene, reference compound] | 23.4 µM | 50.9 ± 0.6 µM | 44.3 ± 3.0 µM and 47 ± 6.0 µM | 92 µM | 58.2 ± 0.4 µM | 28 µM | 92.2 ± 2.9 µM | 37 µM | 23.1 ± 0.14 µM | 15 µM | 36.9 ± 2.45 µM | 163 ± 0.3 µM | 142 ± 6.4 µM | 43 ± 20 µM | 69 ± 1.2 µM | 59.9±7.4% | CD50 against MHRF ([1]; 1 day incubation): 154.8 ± 16.5 µM; CD50 against MHRF ([1]; 1 day incubation, listed as resveratrol): 155 µM; CD50 against MHRF ([1]; 3 days incubation, listed as resveratrol): 44 µM; IC50 (DU145; 3 days incubation): 27.9 ± 0.65 µM; IC50 (MDAH2274; MTT, 3 days incubation, read-out: CD50 against MDAH, compound tested individually): 14.6 ± 0.12 µM
